Patent publication US8476317B2, “N-alkylcarbonyl-amino acid ester compounds and their use for cough and pharyngitis” (priority 2011, dated 2013)

How the values were obtained:
Assay type in all cases: in vivo, human
philtrum skin = test: Cooling on facial (philtrum) skin, ointment; details: for skin or eye irritancy: in vivo; for Philtrum Skin (min), duration of cooling: 5 mg/ml in Aquaphor ointment
Description: A reliable place for topical application is the skin above the upper lip (above the vermilion border of the lips), on the philtrum, lateral to the philtrum until the nasolabial folds, and on the lower nostrils (subnasale). This part of the face is known to be densely innervated with cold receptors, second only to the surfaces of the eyeball and anogenitalia. At this locus, tingling, cool and cold sensations in the skin may be experienced and rated for time of onset and intensity.
The intervals for recording sensations are 5 to 10 minutes, until two successive zeroes are obtained. The results (shown in FIG. 1) are averaged values of 4 to 6 separate trials in the same individual. The data are plotted using SigmaPlot® (Systat Software, Point Richmond Calif.) and a smoothing function with a negative exponential was used for analysis and statistical fit of the results. Confirmatory trials of cooling action of the long-acting NACE compounds were obtained in 2 to 4 individuals but not quantified for some because of the large number of chemicals that were evaluated.
The onset of drug action is taken as the time to reach 2 units of coolness intensity, and offset of drug action is the time when coolness intensity drops below 2, after previously surpassing 2 units. The duration of cooling action is defined as the offset time minus the onset time. […] The quality of the sensation is noted, for example, as pure refreshing coolness, or if the sensation is accompanied by irritation (stinging or burning). The quality of the sensation is not rated for intensity.
For bioassay on the skin, approximately 30 mg was stirred and dissolved in 3 g of warm liquid Aquaphor® ointment to a yield a 40 mM (˜1% wt/vol) ointment. The exact amount was adjusted so that the molar equivalent was about 35 to 40 mM. After cooling, 40 to 70 mg of the solid ointment was placed on the tip of a plastic stick and applied to the skin above the upper lip, on the philtrum, and lateral to the philtrum, up to the nasolabial folds, of test subjects and the onset and duration of cooling sensations noted.
The intervals for recording sensations were 5 to 10 minutes, until two successive zeroes were obtained. The results (shown in FIG. 1) are averaged values of 4 to 6 separate trials in the same individual. The data are plotted using SigmaPlot® (Systat Software, Point Richmond, Calif., USA) and a smoothing function with a negative exponential was used for analysis and statistical fit of the results.
The onset of drug action was taken as the time to reach 2 units of coolness intensity, and offset of drug action was the time when coolness intensity drops below 2, after previously surpassing 2 units. The duration of cooling action was defined as the offset time minus the onset time. […] The quality of the sensation was also noted: such as pure refreshing coolness, or if the sensation was accompanied by irritation (stinging or burning). The quality of the sensation was not rated for intensity.
In the results of FIG. 1, the test compounds were singly applied to the skin above the upper lips as a ˜1% wt/vol (10 mg/ml) ointment. Subsequently, for the results shown in Table 3, the test dose on the philtrum was reduced to a 0.5% wt/vol (5 mg/ml) ointment. The reason for choosing a lower dose was to increase the number of trials per individual and to have a reduced chance of substances accumulating in the skin.

ocular surface = test: Eye wipe test, duration of cooling on ocular surface; details: eye wipes 1 mg/ml in 5%-95% v/v ethanol-distilled water
Protocol: To further document the activities fo the test molecules, the results from an eye wipe test was included. Here the test substance is applied to the closed eyelids with a towelette at a concentration of 1 mg/ml in 5%-ethanol-95%-distilled water vol/vol and the duration of cooling on the ocular surface was recorded. […] It is likely that the mucous membranes that line the ocular surface and the pharynx have similar sensory mechanisms that are somewhat different from the philtrum skin which is keratinized.

pharyngeal surface = test: Chili-pepper sauce cough challenge test; parameters: key: If there is no attenuation of the challenge stimuli, the score is 0; if there is partial inhibition, the score is +; if there is complete attenuation of the cough signal, the score is ++; details: challenge 45 to 50 min after ODT containing 2 mg of test substance
Description: A number of cough challenge methods have been devised for evoking the cough reflex (Morice et al. Briti. J. Clin. Pharmacol. 52: 365-375, 2001). Usually, citric acid or capsaicin is delivered via the inhalation route to volunteers and the number of coughs counted. […] The chili pepper sauce used here is called Yank Sing® Chili Pepper Sauce (YS Gourmet Productions, Inc., PO Box 26189, San Francisco, Calif. 94126) and is a well-known condiment for use with dim sum (Chinese tea lunch). The sensations associated with the chili pepper sauce are located in the back of the mouth and are clearly recognized and associated with a desire to clear the throat. […] To test for anti-cough activity the ODT with the test substance is first administered onto the dorsal surface of the tongue and 45 to 50 min afterwards the chili-pepper sauce test is administered. If there is no attenuation of the challenge stimuli, the score is 0, if there is partial inhibition, the score is +, and if there is complete attenuation of the cough signal, the score is ++. In the presence of an ODT that results in a ++ score, the irritative signals are completely absent, yet the salty taste used in the soy sauce of the condiment can still be easily tasted. The test substances in the ODT that produced a ++ score were then identified and further tested for effectiveness in the treatment of cough.

| Structure (SMILES) | skin or eye irritancy (philtrum skin) | Eyelids/Ocular Surface (min), duration of cooling (ocular surface) | Chili-Pepper Sauce Test (pharyngeal surface) | Philtrum Skin (min), duration of cooling (philtrum skin) |
| --- | --- | --- | --- | --- |
| CCOC(=O)[C@@H](C)NC(=O)[C@@H]1C[C@H](C)CC[C@H]1C(C)C [D-Ala-OEt, (R)-2-[((1R,2S,5R)-2-isopropyl-5-methyl-cyclohexanecarbonyl)-amino]-propionic acid ethyl ester] | without skin or eye irritancy | 180 min | ++ |  |
| COC(=O)[C@@H](C)NC(=O)[C@@H]1C[C@H](C)CC[C@H]1C(C)C [D-Ala-OMe, (R)-2-[((1R,2S,5R)-2-isopropyl-5-methyl-cyclohexanecarbonyl)-amino]-propionic acid methyl ester] | without skin or eye irritancy | 120 min | ++ | 77 min |
| CCOC(=O)C(C)NC(=O)[C@@H]1C[C@H](C)CC[C@H]1C(C)C (stereo partly drawn) [L-Ala-OEt] |  | 0 min | 0 | 34 min |
